Results: patent publication US20110046131A1, “PURINES AS PKC-THETA INHIBITORS” (N.V. Organon and Pharmacopeia, LLC, priority 2006, published 2011)

What was measured:
Assay type in all cases: biochemical
PKCθ = target: T1, PKCθ (Homo sapiens, UniProt Q04759); assay: Ki Pan Vera (PV) potency for PKCθ; conditions: Ki Pan Vera (PV) of PKCθ
T1 construct: purchased Pan Vera
Method: (§1) For Ki Pan Vera (PV) of PKCθ, entries identified with “A” had values below 100 nM; entries identified with “B” had values below 1 μM; and entries identified with “C” had values below 10 μM.

PKC delta = target: T2, PKC delta (Homo sapiens, UniProt Q05655); assay: Ki Pan Vera (PV) potency for PKC delta; conditions: Ki Pan Vera (PV) of PKC delta
T2 construct: purchased Pan Vera
Method: [The source words this procedure for another target and reports this target under the same test.] as §1

PKC alpha = target: T3, PKC alpha (Homo sapiens, UniProt P17252); assay: Ki Pan Vera (PV) potency for PKC alpha; conditions: Ki Pan Vera (PV) of PKC alpha
T3 construct: purchased Pan Vera
Method: [The source words this procedure for another target and reports this target under the same test.] as §1

SGK kinase = target: T4, SGK kinase (Homo sapiens, UniProt O00141); assay: IC50 for SGK kinase (selectivity); conditions: for IC50: read-out: IC50-SGK1
T4 sequence (O00141 1-431): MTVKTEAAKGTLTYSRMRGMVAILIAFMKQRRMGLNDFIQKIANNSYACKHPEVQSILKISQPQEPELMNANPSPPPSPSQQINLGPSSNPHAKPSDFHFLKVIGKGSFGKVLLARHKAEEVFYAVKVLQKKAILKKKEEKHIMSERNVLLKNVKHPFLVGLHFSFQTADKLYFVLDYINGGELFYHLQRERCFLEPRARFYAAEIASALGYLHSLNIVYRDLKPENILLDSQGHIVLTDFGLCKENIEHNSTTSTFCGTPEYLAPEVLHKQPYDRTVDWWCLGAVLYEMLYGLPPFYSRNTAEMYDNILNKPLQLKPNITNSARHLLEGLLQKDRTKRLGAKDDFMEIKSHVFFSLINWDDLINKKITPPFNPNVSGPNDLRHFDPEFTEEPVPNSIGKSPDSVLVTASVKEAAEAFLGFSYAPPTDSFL
Method: Entries identified with “1” had values above 250 nM; entries identified with “2” had values above 1 μM; entries identified with “3” had values above 10 μM.

T2 sequence (Q05655 whole entry): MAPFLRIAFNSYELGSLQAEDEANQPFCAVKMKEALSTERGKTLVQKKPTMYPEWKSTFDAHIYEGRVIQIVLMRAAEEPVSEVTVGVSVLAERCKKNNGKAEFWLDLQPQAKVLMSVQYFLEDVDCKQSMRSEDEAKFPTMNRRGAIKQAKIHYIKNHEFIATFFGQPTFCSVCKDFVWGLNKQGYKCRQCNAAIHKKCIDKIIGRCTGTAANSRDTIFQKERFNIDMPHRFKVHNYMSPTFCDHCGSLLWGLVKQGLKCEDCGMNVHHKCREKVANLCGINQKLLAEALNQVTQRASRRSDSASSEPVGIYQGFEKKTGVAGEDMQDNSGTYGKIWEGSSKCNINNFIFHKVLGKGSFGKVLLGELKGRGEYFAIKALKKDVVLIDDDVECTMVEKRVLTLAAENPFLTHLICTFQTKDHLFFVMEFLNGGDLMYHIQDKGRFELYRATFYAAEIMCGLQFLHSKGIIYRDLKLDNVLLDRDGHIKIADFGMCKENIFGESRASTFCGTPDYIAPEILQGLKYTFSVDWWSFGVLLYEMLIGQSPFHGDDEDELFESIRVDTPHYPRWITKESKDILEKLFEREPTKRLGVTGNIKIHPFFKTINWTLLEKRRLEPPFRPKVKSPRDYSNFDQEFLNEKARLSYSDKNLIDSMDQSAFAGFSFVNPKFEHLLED
T1 sequence (Q04759 whole entry): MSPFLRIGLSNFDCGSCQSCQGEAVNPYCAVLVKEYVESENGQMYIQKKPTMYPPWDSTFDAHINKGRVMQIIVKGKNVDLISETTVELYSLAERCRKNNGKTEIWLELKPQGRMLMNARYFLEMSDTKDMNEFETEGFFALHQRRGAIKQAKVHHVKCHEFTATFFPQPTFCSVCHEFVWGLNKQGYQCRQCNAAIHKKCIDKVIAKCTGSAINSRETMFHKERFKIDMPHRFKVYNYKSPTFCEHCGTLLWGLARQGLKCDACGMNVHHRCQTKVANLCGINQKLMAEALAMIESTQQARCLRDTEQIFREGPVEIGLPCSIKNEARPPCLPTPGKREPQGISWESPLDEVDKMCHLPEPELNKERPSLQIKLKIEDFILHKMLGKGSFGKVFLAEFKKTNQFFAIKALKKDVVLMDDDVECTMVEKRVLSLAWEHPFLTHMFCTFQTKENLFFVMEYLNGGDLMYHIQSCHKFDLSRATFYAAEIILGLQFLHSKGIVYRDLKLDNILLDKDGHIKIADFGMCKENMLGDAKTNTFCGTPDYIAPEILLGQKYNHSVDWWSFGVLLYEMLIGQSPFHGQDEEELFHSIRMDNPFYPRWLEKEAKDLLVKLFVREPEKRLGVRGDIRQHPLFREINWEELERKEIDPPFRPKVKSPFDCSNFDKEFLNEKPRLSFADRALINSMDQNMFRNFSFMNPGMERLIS

Ki (PKCθ)	Ki (PKC delta)	Ki (PKC alpha)	IC50-SGK1 (SGK kinase)	IC50 (SGK kinase)	Structure (SMILES)
< 1000 nM	> 1000 nM	> 10000 nM	Inactive	–	C[C@H](Nc1ncc2nc(-c3c(Cl)cccc3Cl)n(C[C@@H]3CCCNC3)c2n1)c1ccccc1F [Compound 116]
< 100 nM	> 250 nM	> 250 nM	–	> 10000 nM	Fc1ccc(F)c(CNc2ncc3nc(-c4c(Cl)cccc4Cl)n(CC4CCNC4)c3n2)c1 (stereo not drawn) [Compound 161]
< 1000 nM	> 1000 nM	> 1000 nM	Inactive	–	Clc1cccc(CNc2ncc3nc(-c4c(Cl)cccc4Cl)n(C[C@H]4CCNC4)c3n2)c1 [Compound 135]
< 1000 nM	> 1000 nM	> 1000 nM	Inactive	–	Fc1ccc(CNc2ncc3nc(-c4c(F)cccc4Cl)n(C[C@@H]4CCCNC4)c3n2)cc1Cl [Compound 108]
< 1000 nM	> 1000 nM	> 1000 nM	Inactive	–	Fc1ccccc1CNc1ncc2nc(-c3c(Cl)cccc3Cl)n(CC3CCCNC3)c2n1 (stereo not drawn) [Compound 117]
< 1000 nM	> 1000 nM	> 10000 nM	Inactive	–	Fc1ccccc1CNc1ncc2nc(-c3ccccc3Cl)n(CCC3CCNCC3)c2n1 [Compound 240]
< 100 nM	> 1000 nM	> 1000 nM	Inactive	–	Fc1ccc(CNc2ncc3nc(-c4c(Cl)cccc4Cl)n(C[C@@H]4CCCNC4)c3n2)c(F)c1 [Compound 109]
< 1000 nM	> 1000 nM	> 1000 nM	Inactive	–	Fc1ccc(CNc2ncc3c(n2)C(C[C@@H]2CCCNC2)C(c2c(F)cccc2Cl)=N3)cc1 (stereo partly drawn) [Compound 128]
–	–	–	Inactive	–	Fc1ccc(CNc2ncc3c(n2)C(CC2CNCCO2)C(c2c(F)cccc2Cl)=N3)cc1F (stereo not drawn) [Compound 215]
< 1000 nM	> 1000 nM	> 1000 nM	Inactive	–	Fc1ccc(CNc2ncc3nc(-c4c(Cl)cccc4Cl)n(CCC4CCNCC4)c3n2)cc1 [Compound 163]
< 1000 nM	> 1000 nM	> 1000 nM	Inactive	–	Fc1ccccc1CNc1ncc2nc(-c3c(Cl)cccc3Cl)n(CCC3CCCNC3)c2n1 (stereo not drawn) [Compound 164]
< 10000 nM	> 1000 nM	> 10000 nM	Inactive	–	Fc1ccc(CNc2ncc3nc(-c4ccccc4Cl)n(C[C@@H]4CCCNC4)c3n2)c(F)c1 [Compound 210]
< 100 nM	> 250 nM	> 1000 nM	Inactive	–	Fc1ccc(CNc2ncc3nc(-c4c(Cl)cccc4Cl)n(C[C@@H]4CCCNC4)c3n2)cc1 [Compound 105]
< 100 nM	> 1000 nM	> 1000 nM	–	> 1000 nM	Fc1ccccc1CNc1ncc2nc(-c3c(Cl)cccc3Cl)n(C[C@@H]3CCCNC3)c2n1 [Compound 110]
< 100 nM	> 250 nM	> 1000 nM	–	> 10000 nM	Fc1ccc(F)c(CNc2ncc3nc(-c4c(Cl)cccc4Cl)n(C[C@@H]4CCCNC4)c3n2)c1 [Compound 104]
< 1000 nM	> 1000 nM	> 10000 nM	–	> 1000 nM	Fc1ccccc1CNc1ncc2nc(-c3c(F)cccc3Cl)n(C[C@H]3CCCNC3)c2n1 [Compound 156]
< 1000 nM	> 1000 nM	> 1000 nM	–	> 10000 nM	Fc1ccc(F)c(CNc2ncc3nc(-c4c(F)cccc4Cl)n(C[C@@H]4CCCNC4)c3n2)c1 [Compound 124]
–	–	–	Inactive	–	Cc1ccsc1CNc1ncc2nc(-c3c(Cl)cccc3Cl)n(C[C@@H]3CCCNC3)c2n1 [Compound 201]
< 10000 nM	> 1000 nM	> 10000 nM	Inactive	–	NCCCCCCn1c(-c2ccccc2Cl)nc2cnc(NCc3ccccc3F)nc21 [Compound 207]

Ki (PKCθ)	Ki (PKC delta)	Ki (PKC alpha)	IC50-SGK1 (SGK kinase)	IC50 (SGK kinase)	Structure (SMILES)
< 100 nM	> 1000 nM	> 1000 nM	–	> 10000 nM	Fc1ccc(Cl)cc1CNc1ncc2nc(-c3c(Cl)cccc3Cl)n(C[C@@H]3CCCNC3)c2n1 [Compound 102]
< 1000 nM	> 10000 nM	> 1000 nM	Inactive	–	Fc1ccccc1CNc1ncc2nc(-c3c(F)cccc3Cl)n(C[C@H]3CCCNC3)c2n1 [Compound 162]
< 1000 nM	> 1000 nM	> 1000 nM	Inactive	–	Fc1cccc(CNc2ncc3nc(-c4c(Cl)cccc4Cl)n(CC4CCNC4)c3n2)c1 (stereo not drawn) [Compound 147]
< 1000 nM	> 1000 nM	> 1000 nM	Inactive	–	Clc1cccc(Cl)c1-c1nc2cnc(NCc3cccs3)nc2n1C[C@H]1CCNC1 [Compound 170]
< 1000 nM	> 10000 nM	> 10000 nM	–	> 1000 nM	Clc1cccc(Cl)c1-c1nc2cnc(NCc3ccccc3)nc2n1CCC1CCNCC1 [Compound 141]
< 1000 nM	> 1000 nM	> 1000 nM	–	> 10000 nM	Fc1ccc(CNc2ncc3nc(-c4c(F)cccc4Cl)n(CC4CCNC4)c3n2)cc1F (stereo not drawn) [Compound 223]
< 1000 nM	> 1000 nM	> 1000 nM	Inactive	–	Fc1ccc(CNc2ncc3nc(-c4c(Cl)cccc4Cl)n(CC4CCNC4)c3n2)c(F)c1 (stereo not drawn) [Compound 172]
< 10000 nM	> 10000 nM	> 10000 nM	Inactive	–	CC(Nc1ncc2nc(-c3c(Cl)cccc3Cl)n(CCC3CCNCC3)c2n1)c1ccccc1 (stereo not drawn) [Compound 212]
< 1000 nM	> 1000 nM	> 1000 nM	Inactive	–	Fc1ccc(CNc2ncc3nc(-c4c(F)cccc4Cl)n(C[C@@H]4CCCNC4)c3n2)c(F)c1 [Compound 144]
< 10000 nM	> 10000 nM	> 10000 nM	Inactive	–	Fc1cc(Cl)ccc1CNc1ncc2nc(-c3c(Cl)cccc3Cl)n(C[C@@H]3CCCNC3)c2n1 [Compound 213]
< 1000 nM	> 1000 nM	> 10000 nM	Inactive	–	Fc1ccc(F)c(CNc2ncc3nc(-c4ccccc4Cl)n(C[C@@H]4CCCNC4)c3n2)c1 [Compound 167]
< 1000 nM	> 1000 nM	–	–	> 10000 nM	NC[C@H]1CC[C@H](n2c(-c3c(Cl)cccc3Cl)nc3cnc(NCc4ccccc4F)nc32)CC1 [Compound 149]
–	–	> 1000 nM	Inactive	–	Fc1ccccc1CNc1ncc2nc(-c3c(Cl)cccc3Cl)n(C[C@@H]3CCCNC3)c2n1 [Compound 111]
–	–	–	Inactive	–	Clc1cccc(Cl)c1C1=Nc2cnc(NCc3ccsc3)nc2C1C[C@@H]1CCCNC1 (stereo partly drawn) [Compound 114]
–	–	–	Inactive	–	NCC1CCC(n2c(-c3cccc(F)c3F)nc3cnc(NCc4ccccc4F)nc32)CC1 (stereo not drawn) [Compound 222]
–	–	–	Inactive	–	Clc1cccc(Cl)c1C1=Nc2cnc(NCc3nccs3)nc2C1C[C@@H]1CCCNC1 (stereo partly drawn) [Compound 137]
< 1000 nM	> 1000 nM	–	Inactive	–	NC[C@H]1CC[C@H](n2c(-c3ccccc3Cl)nc3cnc(NCc4ccccc4F)nc32)CC1 [Compound 175]
–	–	–	Inactive	–	Fc1ccccc1CNc1ncc2nc(-c3c(Cl)cccc3Cl)n(C3CCNCC3)c2n1 [Compound 221]
